Here are results for 1 compound from patent US20250353825A1, “CANNABICYCLOL DERIVATIVES AND PREPARATION METHODS THEREOF” (priority 2023, published 2025).

Common to all, as to type: cell-based
The test system of experiment [1] is HepG2-CSC. In words: Soft agar colony (clone) formation, HepG2-CSC. The note with it: crystal violet, FIG. 4, compound 3a 0, 5 and 5 [sic] μg/mL. As for the experimental part: […] of low-melting-point agarose was dissolved in 12.5 mL of ddH2O to prepare a 3.2% low-melting-point agarose gel. The low-melting-point agarose gel was sterilized by autoclaving at 121° C. and 0.12 MPa for 20 minutes. After sterilization, the low-melting-point agarose gel was maintained at 60° C. in a drying oven for further use.
1.75 mL of 3.2% sterile low-melting-point agarose gel was taken, 5.25 mL of the corresponding complete medium was added, and the two were mixed thoroughly using a pipette to prepare a base gel at a concentration of 0.8%.
1 mL of the base gel was added to each well of a 6-well plate, ensuring that the base gel evenly covered the bottom of each well. The plate was placed at 4° C. for 5 minutes to allow the gel to solidify. After the gel had fully solidified, the plate was warmed at 37° C. for 5 minutes.
6 cells/cell lines (U251, SMMC7721, GSC-3, GSC-12, SMMC7721-CSC, and HepG2-CSC) were individually digested with 1× trypsin for 3 minutes. The corresponding complete culture medium (same as in the application example 1) was added to terminate the digestion. Cells were centrifuged at 1000 rpm for 3 minutes, and the cells were collected and counted. A total of 5×10^3 cells were added to each well, each group was set up with three replicates. […]

The test system of experiment [2] is SKOV3. In words: MTS cell viability assay, SKOV3. The note with it: Homo sapiens, SK-OV-3; Table 7, 72 hours; read-out: IC50 against SKOV3. As for the experimental part:
(§1) Primary viability screening: (1) the synthesized compounds 3a to 13d were respectively dissolved in DMSO to prepare a 40 μg/mL cannabicyclol and cannabicyclol derivative solutions.
(§2) (2) A control group: a 200 μL DMSO solvent.
(§3) (3) The solutions of compounds 3a to 13d were diluted in a twofold gradient to obtain cannabicyclol and cannabicyclol derivative solutions at concentrations of 40 μg/mL, 20 μg/mL, 10 μg/mL, 5 μg/mL, 2.5 μg/mL, 1.25 μg/mL, and 0.625 μg/mL, and 0.3125 μg/mL, respectively.
(§4) (4) Three glioblastoma stem cells (GSC-3, GSC-12, and GSC-18), three pancreatic cancer cell-derived stem cells (PANC-1-CSC, BXPC-3-CSC, and ASPC1-CSC), three liver cancer cell-derived stem cells (HepG2-CSC, MHCC97H-CSC, and SMMC7721-CSC), HEK-293T cells, 16 tumor cells (U251, U87, T98G, PANC1, BXPC3, ASPC1, HepG2, MHCC97H, SMMC7721, PC3, SKOV3, MDA-MB231, A549, HCT116, HEC-1B, MKN28), and differentiated glioblastoma stem cells (GSC-3diff and GSC-12diff) derived from GSC-3 and GSC-12 (all of the cells were provided by the Laboratory of Tumor Animal Model Preparation and Application Research, West China Hospital, Sichuan University) were inoculated into a 96-well plate at a concentration of 2×10^4 cells/well, and 100 μL of culture medium was then added to each well; […]
(§5) (10) The absorbance value at 490 nm was measured on an enzyme labeling apparatus, and the IC50 value was calculated.
On the technique in general: Formazan colour is commonly taken as a measure of viable cells.

Experiment [3] concerns GSC-12. In words: MTS cell viability assay, GSC-12. The note with it: GSC12; Table 6, tumor stem cell, 72 hours; read-out: IC50 against GSC-12. The procedure:
as §1, §2, §3, §4, §5

In experiment [4] the test system is HepG2. In words: MTS cell viability assay, HepG2. The note with it: Homo sapiens, Table 7, 72 hours, read-out: IC50 against HepG2. As for the experimental part: as §1, §2, §3, §4, §5
The subject of experiment [5] is GSC-3diff. In words: MTS cell viability assay, differentiated glioblastoma stem cells GSC-3diff. The note with it: Table 7, 72 hours, read-out: IC50 against GSC-3diff. As for the experimental part: as §1, §2, §3, §4, §5

Structures are written as SMILES. ≈ marks a conversion by molar mass, not a printed value.

For `CCCCCc1cc(O)c2c(c1)OC1(C)CCC3C1C2C3(C)C` (centres unmarked) [Compound 3a, cannabicyclol], the “colony formation of HepG2-CSC” value in experiment [1] is “significantly inhibited”. For the same compound, the IC50 in experiment [2] was over 40 µg/mL; in experiment [3], 8.03 µg/mL (≈ 25.5 µM); in experiment [4], over 40 µg/mL; in experiment [5] it was 23.5 µg/mL (≈ 74.7 µM).

The IC50 is the concentration needed to halve the response being measured.
